# Columns and labels:
# [1] = test system: control sera (pooled serum of ten healthy LUMC hospital workers; commercial negative donor pooled serum from the Dutch bloodbank); assay type: binding, human
# [2] = test system: rabbit serum obtained by immunizing a rabbit with the SARS-CoV strain Frankfurt 1; assay type: binding; set-up: Binding of a rabbit serum to linear peptides / Binding of a rabbit serum to looped peptides / Rabbit serum linear peptides / Rabbit serum looped peptides / Binding of a rabbit serum to linear peptides of protein N of SARS-CoV Urbani (Rabbit serum linear peptides) / Binding of a rabbit serum to looped/cyclic peptides of protein N of SARS-CoV Urbani (Rabbit serum looped peptides): unit not given here
# [3] = test system: antibodies in sera from SARS patients (sera 1a, 1b, 2, 6, 37, 62, London, SARS-yellow, SARS-green); assay type: binding, human
Sequence,Binding of Control Serum Blood-Bank to Looped peptides [1],Binding of Control serum Blood-bank to linear peptides [1],Binding of Control serum LUMC to linear peptides [1],Binding of Control serum LUMC to looped peptides [1],Binding of a rabbit serum to linear peptides [2],Binding of a rabbit serum to looped peptides [2],Binding of serum 1a to linear peptides of protein E of SARS-CoV Urbani [3],Binding of serum 1a to looped/cyclic peptides of protein E of SARS-CoV Urbani [3],Binding of serum 1b to linear peptides of protein E of SARS-CoV Urbani [3],Binding of serum 1b to looped/cyclic peptides of protein E of SARS-CoV Urbani [3],Binding of serum 2 to linear peptides of protein E of SARS-CoV Urbani [3],Binding of serum 2 to looped/cyclic peptides of protein E of SARS-CoV Urbani [3],Binding of serum 6 to linear peptides of protein E of SARS-CoV Urbani [3],Binding of serum 6 to looped/cyclic peptides of protein E of SARS-CoV Urbani [3],Binding of serum 37 to linear peptides of protein E of SARS-CoV Urbani [3],Binding of serum 37 to looped/cyclic peptides of protein E of SARS-CoV Urbani [3],Binding of serum 62 to linear peptides of protein E of SARS-CoV Urbani [3],Binding of serum 62 to looped/cyclic peptides of protein E of SARS-CoV Urbani [3],Binding of serum London to linear peptides of protein E of SARS-CoV Urbani [3],Binding of serum London to looped/cyclic peptides of protein E of SARS-CoV Urbani [3],also measured
LAFVVFLLVTLAILT,0.8,0.6,0.5,0.6,0.5,0.2,0.8,0.5,0.5,0.5,0.5,0.5,0.7,0.5,0.7,0.6,0.7,0.6,0.6,0.5,Binding of serum SARS-green to linear peptides of protein E of SARS-CoV Urbani [3]: 0.3; Binding of serum SARS-green to looped/cyclic peptides of protein E of SARS-CoV Urbani [3]: 0.5; Binding of serum SARS-yellow to linear peptides of protein E of SARS-CoV Urbani [3]: 0.1; Binding of serum SARS-yellow to looped/cyclic peptides of protein E of SARS-CoV Urbani [3]: 0.4
LAILTALRLCAYCCN,0.7,0.7,0.6,0.8,0.6,0.6,0.8,0.8,0.7,0.4,0.5,0.6,0.5,0.5,0.8,0.6,0.8,0.7,0.5,0.4,Binding of serum SARS-green to linear peptides of protein E of SARS-CoV Urbani [3]: 0.5; Binding of serum SARS-green to looped/cyclic peptides of protein E of SARS-CoV Urbani [3]: 0.5; Binding of serum SARS-yellow to linear peptides of protein E of SARS-CoV Urbani [3]: 0.2; Binding of serum SARS-yellow to looped/cyclic peptides of protein E of SARS-CoV Urbani [3]: 0.8
LFLAFVVFLLVTLAI,0.6,0.7,0.5,0.7,0.5,0.3,0.9,0.5,0.5,0.5,0.9,0.6,0.7,0.5,0.7,0.6,0.7,0.7,0.8,0.5,Binding of serum SARS-green to linear peptides of protein E of SARS-CoV Urbani [3]: 0.5; Binding of serum SARS-green to looped/cyclic peptides of protein E of SARS-CoV Urbani [3]: 0.7; Binding of serum SARS-yellow to linear peptides of protein E of SARS-CoV Urbani [3]: 0.2; Binding of serum SARS-yellow to looped/cyclic peptides of protein E of SARS-CoV Urbani [3]: 0.9
LLVTLAILTALRLCA,0.8,0.7,0.3,0.8,0.5,0.8,0.8,0.7,0.4,0.1,0.5,0.6,0.4,0.4,0.6,0.3,0.6,0.8,0.5,0.4,Binding of serum SARS-green to linear peptides of protein E of SARS-CoV Urbani [3]: 0.4; Binding of serum SARS-green to looped/cyclic peptides of protein E of SARS-CoV Urbani [3]: 0.6; Binding of serum SARS-yellow to linear peptides of protein E of SARS-CoV Urbani [3]: 0.0; Binding of serum SARS-yellow to looped/cyclic peptides of protein E of SARS-CoV Urbani [3]: 0.3
LRLCAYCCNIVNVSL,0.6,0.8,0.4,0.6,0.6,0.2,0.7,0.7,0.6,0.4,0.4,0.5,0.6,0.4,0.7,0.6,0.7,0.6,0.5,0.4,Binding of serum SARS-green to linear peptides of protein E of SARS-CoV Urbani [3]: 0.3; Binding of serum SARS-green to looped/cyclic peptides of protein E of SARS-CoV Urbani [3]: 0.6; Binding of serum SARS-yellow to linear peptides of protein E of SARS-CoV Urbani [3]: 0.3; Binding of serum SARS-yellow to looped/cyclic peptides of protein E of SARS-CoV Urbani [3]: 0.6

# Reference: patent publication US20070128217A1 (priority 2003, published 2007)
